Laboratory results: ChEMBL document CHEMBL1201862, “PubChem BioAssay data set” (2004)
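Interpolation was linear, between the two tested concentrations surrounding the appropriate level; five concentrations were tested over 48 hours in 96-well plates. GI50 = concentration required for 50% inhibition of growth.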 The source made the active and inactive calls. Cut-off read from the data, not from the text of the source: active = GI50 up to about 1.1 µM and inactive = higher.

How the values were obtained:
Assay in all cases: NCI-60 cell line screen, 48 h
[1] = test system: 786-0
[2] = test system: SK-MEL-28
[3] = test system: SF-295
[4] = test system: NCI-H522
[5] = test system: OVCAR-3
[6] = test system: BT-549
[7] = test system: EKVX
[8] = test system: COLO 205
[9] = test system: SK-OV-3
[10] = test system: SNB-78
[11] = test system: DMS-114
[12] = test system: HOP-62
[13] = test system: ACHN
[14] = test system: DMS-273
[15] = test system: MCF7
[16] = test system: U-251
[17] = test system: A498
[18] = test system: SF-539
[19] = test system: NCI-H226
[20] = test system: UACC-257

SMILES	GI50 [1]	GI50 [2]	GI50 [3]	GI50 [4]	GI50 [5]	GI50 [6]	GI50 [7]	GI50 [8]	GI50 [9]	GI50 [10]	GI50 [11]	GI50 [12]	GI50 [13]	GI50 [14]	GI50 [15]	GI50 [16]	GI50 [17]	GI50 [18]	GI50 [19]	GI50 [20]
C/C(=N\NC(=S)N1CC2CCC(CC2)C1)c1nccs1	0.25 µM (active)	1.1 µM (active)	0.296 µM (active)	0.0471 µM (active)	0.0415 µM (active)	1.07 µM (active)	0.0789 µM (active)	0.0145 µM (active)	0.809 µM (active)	10.3 µM (inactive)	< 0.0148 µM (active)	0.395 µM (active)	0.3 µM (active)	0.127 µM (active)	< 0.0258 µM (active)	0.185 µM (active)	1.8 µM (inactive)	0.307 µM (active)	0.479 µM (active)	0.113 µM (active)
Cc1c(Cl)ccc2c1NC(=O)C2(O)C(C(=O)c1ccccc1)c1ccccc1 (stereo unspecified)	32.4 µM (inactive)	94.6 µM (inactive)	36.5 µM (inactive)	27.7 µM (inactive)	> 10 µM (inactive)	–	43.3 µM (inactive)	> 100 µM (inactive)	> 100 µM (inactive)	> 100 µM (inactive)	21.9 µM (inactive)	> 100 µM (inactive)	72.4 µM (inactive)	51.5 µM (inactive)	–	34.8 µM (inactive)	24 µM (inactive)	74.6 µM (inactive)	88.5 µM (inactive)	28.7 µM (inactive)
NC(=O)CCC(NC(=O)C(F)(F)F)C(=O)O (stereo unspecified)	> 100 µM (inactive)	> 100 µM (inactive)	> 100 µM (inactive)	> 100 µM (inactive)	> 100 µM (inactive)	–	> 100 µM (inactive)	> 100 µM (inactive)	> 100 µM (inactive)	> 100 µM (inactive)	> 100 µM (inactive)	> 100 µM (inactive)	> 100 µM (inactive)	> 100 µM (inactive)	–	> 100 µM (inactive)	> 100 µM (inactive)	> 100 µM (inactive)	> 100 µM (inactive)	> 100 µM (inactive)
